Test results: PubChem BioAssay AID1963860 (Molecular Pharmacology Branch, DTP, NCI, 2024)

System: CN0375-F725-PDC KRAS spheroid viability
Assay: Anticancer human tumor CN0375-F725-PDC patient-derived colon carcinoma cell line growth inhibition [KRAS2]
Settings: spheroids with HUVEC and MSC; for IC50: curve of first compound; for viability, T/C: stronger effect = lower value
Outline: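 Combination screen of spheroid viability in tumor-cell co-cultures with endothelial (HUVEC) and mesenchymal stem cell stroma. Each agent was tested in half-log dilutions, topping at clinical Cmax or at 10 microM without a known Cmax.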

[1] = second compound 0.1 µM, first compound 0.0316 µM
[2] = second compound 0.1 µM, first compound 0.1 µM
[3] = second compound 0.1 µM, first compound 0.316 µM
[4] = second compound 0.1 µM, first compound 1 µM
[5] = second compound 0.1 µM, first compound 3.16 µM
[6] = second compound 0.1 µM, first compound 10 µM
[7] = second compound 0.316 µM, first compound 0.0316 µM
[8] = second compound 0.316 µM, first compound 0.1 µM
[9] = second compound 0.316 µM, first compound 0.316 µM
[10] = second compound 0.316 µM, first compound 1 µM
[11] = second compound 0.316 µM, first compound 3.16 µM
[12] = second compound 0.316 µM, first compound 10 µM
[13] = second compound 1 µM, first compound 0.0316 µM
[14] = second compound 1 µM, first compound 0.1 µM
[15] = second compound 1 µM, first compound 0.316 µM
[16] = second compound 1 µM, first compound 1 µM
[17] = second compound 1 µM, first compound 3.16 µM
[18] = second compound 1 µM, first compound 10 µM
[19] = second compound 3.16 µM, first compound 0.0316 µM
[20] = second compound 3.16 µM, first compound 0.1 µM
[21] = second compound 3.16 µM, first compound 0.316 µM
[22] = second compound 3.16 µM, first compound 1 µM
[23] = second compound 3.16 µM, first compound 3.16 µM
[24] = second compound 3.16 µM, first compound 10 µM
[25] = second compound 10 µM, first compound 0.0316 µM
[26] = second compound 10 µM, first compound 0.1 µM
[27] = second compound 10 µM, first compound 0.316 µM
[28] = second compound 10 µM, first compound 1 µM
[29] = second compound 10 µM, first compound 3.16 µM
[30] = second compound 10 µM, first compound 10 µM
[31] = second compound 0.1 µM, first compound 0.01 µM
[32] = second compound 0.316 µM, first compound 0.01 µM
[33] = second compound 1 µM, first compound 0.01 µM
[34] = second compound 3.16 µM, first compound 0.01 µM
[35] = second compound 10 µM, first compound 0.01 µM
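Also: spheroids exposed to agents for 7 days.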

Structure (SMILES)	IC50 (second compound 0.1 µM) [nM]	IC50 (second compound 0.316 µM) [nM]	IC50 (second compound 1 µM) [nM]	IC50 (second compound 3.16 µM) [nM]	IC50 (second compound 10 µM) [nM]	viability, T/C [1] [%]	viability, T/C [2] [%]	viability, T/C [3] [%]	viability, T/C [4] [%]	viability, T/C [7] [%]	viability, T/C [8] [%]	viability, T/C [9] [%]	viability, T/C [10] [%]	viability, T/C [13] [%]	viability, T/C [14] [%]	viability, T/C [15] [%]	viability, T/C [16] [%]	viability, T/C [19] [%]	viability, T/C [20] [%]	viability, T/C [21] [%]	other results
CC(C)NCC(C(=O)N1CCN(c2ncnc3c2C(C)CC3O)CC1)c1ccc(Cl)cc1 (stereo not given) + COc1cc2nc(C)nc(NC(C)c3cc(N)cc(C(F)(F)F)c3)c2cc1OC1CCOC1	> 10000	> 10000	> 10000	> 10000	< 31.6	100	100	87.7	88.3	95.5	97.3	88.5	85.1	93.6	93.3	85.2	80.7	88.5	81.7	76.9	viability, T/C [5]: 84.8%; viability, T/C [6]: 74.4%; viability, T/C [11]: 81.3%; viability, T/C [12]: 71.1%; viability, T/C [17]: 74.4%; viability, T/C [18]: 65.5%; viability, T/C [22]: 66.9%; viability, T/C [23]: 62.4%; viability, T/C [24]: 50.5%; viability, T/C [25]: 16.1%; viability, T/C [26]: 18.6%; viability, T/C [27]: 14.8%; viability, T/C [28]: 10.8%; viability, T/C [29]: 8.1%; viability, T/C [30]: 5.67%
CC1COCCN1c1cc(-c2ccnn2C)c2ccnc(-c3ccn[nH]3)c2n1 (stereo not given) + COc1cc2nc(C)nc(NC(C)c3cc(N)cc(C(F)(F)F)c3)c2cc1OC1CCOC1	> 3160	> 3160	> 3160	2720	< 10	95	86.5	78.3	71.1	91.4	76	74.8	67.9	96.1	78	71.8	65.6	88.2	71.7	65.3	viability, T/C [31]: 101%; viability, T/C [5]: 54.1%; viability, T/C [32]: 98.7%; viability, T/C [11]: 50.8%; viability, T/C [33]: 101%; viability, T/C [17]: 49.5%; viability, T/C [34]: 87.5%; viability, T/C [22]: 58.1%; viability, T/C [23]: 48.1%; viability, T/C [35]: 15%; viability, T/C [25]: 19.3%; viability, T/C [26]: 17.1%; viability, T/C [27]: 13.9%; viability, T/C [28]: 18.1%; viability, T/C [29]: 9.84%
CC1OCC2(CCN(c3cnc(Sc4ccnc(N)c4Cl)c(N)n3)CC2)C1N (stereo not given) + COc1cc2nc(C)nc(NC(C)c3cc(N)cc(C(F)(F)F)c3)c2cc1OC1CCOC1	> 10000	> 10000	> 10000	4640	< 31.6	95.5	83.2	80.6	81.2	90.5	91.7	73.3	77.8	91.3	87.2	81.3	73.9	80.9	73.8	69	viability, T/C [5]: 76%; viability, T/C [6]: 70.7%; viability, T/C [11]: 71%; viability, T/C [12]: 60.6%; viability, T/C [17]: 68.7%; viability, T/C [18]: 60.4%; viability, T/C [22]: 57.2%; viability, T/C [23]: 61.3%; viability, T/C [24]: 40.1%; viability, T/C [25]: 13.6%; viability, T/C [26]: 12.1%; viability, T/C [27]: 12.8%; viability, T/C [28]: 8.09%; viability, T/C [29]: 8.5%; viability, T/C [30]: 5.15%
CCN1CCN(Cc2ccc(Nc3ncc(F)c(-c4cc(F)c5nc(C)n(C(C)C)c5c4)n3)nc2)CC1 + COc1cc2nc(C)nc(NC(C)c3cc(N)cc(C(F)(F)F)c3)c2cc1OC1CCOC1	> 1000	> 1000	> 1000	> 1000	< 3.16	81.9	88.1	90.7	94.7	79.2	82	92.8	78	79.3	81.6	86.5	83	71.3	70.7	71.7	viability, T/C (second compound 0.1 µM, first compound 0.00316 µM): 96.4%; viability, T/C [31]: 89.7%; viability, T/C (second compound 0.316 µM, first compound 0.00316 µM): 93%; viability, T/C [32]: 91.2%; viability, T/C (second compound 1 µM, first compound 0.00316 µM): 91.1%; viability, T/C [33]: 85.3%; viability, T/C (second compound 3.16 µM, first compound 0.00316 µM): 84.3%; viability, T/C [34]: 79.9%; viability, T/C [22]: 49.5%; viability, T/C (second compound 10 µM, first compound 0.00316 µM): 14.6%; viability, T/C [35]: 14.5%; viability, T/C [25]: 13.4%; viability, T/C [26]: 15.4%; viability, T/C [27]: 6.49%; viability, T/C [28]: 0.9%
CCNC(=O)CC1N=C(c2ccc(Cl)cc2)c2cc(OC)ccc2-n2c(C)nnc21 (stereo not given) + COc1cc2nc(C)nc(NC(C)c3cc(N)cc(C(F)(F)F)c3)c2cc1OC1CCOC1	8600	6560	7200	1960	< 31.6	97.9	88.2	77.7	78.2	94.2	87.6	78.1	71.7	87.4	84.5	71.2	69.7	79.1	79.4	64.9	viability, T/C [5]: 63.7%; viability, T/C [6]: 45.8%; viability, T/C [11]: 63.4%; viability, T/C [12]: 42.5%; viability, T/C [17]: 60.6%; viability, T/C [18]: 45.4%; viability, T/C [22]: 58.6%; viability, T/C [23]: 44.8%; viability, T/C [24]: 32.5%; viability, T/C [25]: 12.7%; viability, T/C [26]: 8.68%; viability, T/C [27]: 5%; viability, T/C [28]: 3.29%; viability, T/C [29]: 2.26%; viability, T/C [30]: 1.29%
Cn1nccc1Nc1nccc(-c2cc3c(s2)C(C)(C)N(CCN2CCOCC2)C3=O)n1 + COc1cc2nc(C)nc(NC(C)c3cc(N)cc(C(F)(F)F)c3)c2cc1OC1CCOC1	2530	2200	1570	487	< 31.6	96.5	85.8	68.7	59.9	88.8	83.2	67.2	59.9	92.9	80.5	63.8	53.2	75.6	68.8	53.8	viability, T/C [5]: 47.2%; viability, T/C [6]: 41.6%; viability, T/C [11]: 45.2%; viability, T/C [12]: 39.6%; viability, T/C [17]: 46.1%; viability, T/C [18]: 37.6%; viability, T/C [22]: 41.6%; viability, T/C [23]: 35.1%; viability, T/C [24]: 28.2%; viability, T/C [25]: 11.9%; viability, T/C [26]: 13.1%; viability, T/C [27]: 10.9%; viability, T/C [28]: 8.43%; viability, T/C [29]: 4.35%; viability, T/C [30]: 1.87%
